From patent publication US9415021B2, “Synthesis of oxygen carrying, turbulence resistant, high density submicron particulates” (Nanoshell Company, LLC, priority 2009, dated 2016)

Assay: Oxygen content of suspensions by glucose assay solution (glucose oxidase/peroxidase, absorbance at 540 nm) and Equation 1
Assay type: physicochemical
Settings: 37° C., 1 AP
Experimental: To confirm the oxygen carrying capability of the single coated nanoemulsion particle AOCs, the amount of dissolved oxygen in water was measured. The linear dependence of the absorbance at 540 nm in response to the concentration of glucose was first confirmed at 37° C. in the presence of sufficient amount of oxygen, and then the limiting amount of oxygen concentration was estimated in the presence of sufficient amount of glucose. […] The DI water was added to make the total volume 1.41 μl and the absorbance determined at 540 nm. The absorbance was plotted against the molar concentration of dissolved oxygen assuming that the air at 1 AP and 37° C., water contains 215.6 μmol/L of O2. The experimentally determined oxygen content in the coated AOC suspension is a composite of oxygen content in water and in the perfluorocarbon. Quantitatively, CO2 total=CO2 PFC VPFC+CO2 water Vwater=CO2 PFC VPFC+CO2 water(1−VPFC) (Equation 1) where, CO2 total is the total oxygen concentration of the sample, and CO2 PFC and CO2 water are the concentrations of oxygen in PFC and water at a given partial pressure of oxygen and temperature, and similarly V's are the volume fractions of PFC and water. […] The reaction was allowed to proceed for 30 minutes at 37° C. and the absorption was measured at 540 nm in order to estimate the amount of oxygen present in the uncoated and coated products.

oxygen content, estimated CSAT: 3,640 μmol/L
Compound: FC(F)(F)C(F)(F)C(F)(F)C(F)(F)C(F)(F)C(F)(F)C(F)(F)C(F)(F)Br [emulsified PFOB, perfluorooctylbromide]
